Results published in patent US8399462B2, “JNK modulators” (Roche Palo Alto LLC, priority 2006, dated 2013).
Values joined by “and” are separate entries in the source; they are usually repeats but may differ in a detail not shown here. Equal entries are not always repeated.

First: CCNC(=O)[C@H]1CC[C@H](Nc2nccc(-n3ccc4c(OCCCS(=O)(=O)NC)cccc43)n2)CC1 [Compound 303, 4-{4-[4-(3-methane-sulfamoyl-propoxy)-indol-1-yl]-pyrimidin-2-ylamino}-cyclohexane-carboxylic acid ethyl-amide]
Second: CCOC(=O)[C@H]1CC[C@H](Nc2nccc(-n3ccc4c(OCCCS(N)(=O)=O)cccc43)n2)CC1 [Compound 318, 4-{4-[4-(3-sulfamoyl-propoxy)-indol-1-yl]-pyrimidin-2-ylamino}-cyclohexanecarboxylic acid ethyl ester]
The melting point of the first is higher: 201.7 to 203.2 °C for the first, 145 to 148 °C for the second.

First: CS(=O)(=O)CCCOc1cccc2c1ccn2-c1ccnc(N[C@H]2CC[C@H](N3CCCS3(=O)=O)CC2)n1 [Compound 305, [4-(1,1-dioxo-isothiazolidin-2-yl)-cyclohexyl]-{4-[4-(3-methane-sulfonyl-propoxy)-indol-1-yl]-pyrimidin-2-yl}-amine]
Second: CS(=O)(=O)CCCOc1cccc2c1ccn2-c1ccnc(N[C@H]2CC[C@H](CN3CC[C@@H](O)C3)CC2)n1 [Compound 317, 1-(4-{4-[4-(3-methanesulfonyl-propoxy)-indol-1-yl]-pyirmidin-2-ylamino}-cyclohexylmethyl)-pyrrolidin-3-ol]
The melting point of the first is higher: 164.1 to 172.5 °C for the first, 139.6 to 150.3 °C for the second.

First: CS(=O)(=O)CCCOc1cccc2c(-c3ccnc(N[C@H]4CC[C@H](NS(C)(=O)=O)CC4)n3)noc12 [Compound 306, N-(4-{4-[7-(3-methane-sulfonyl-propoxy)-benzo[d]isoxazol-3-yl]-pyrimidin-2-ylamino}-cyclohexyl)-methane-sulfonamide]
Second: CN([C@H]1CC[C@H](Nc2nccc(-c3noc4c(OCCCS(C)(=O)=O)cccc34)n2)CC1)S(C)(=O)=O [Compound 310, N-(4-{4-[7-(3-methane-sulfonyl-propoxy)-benzo[d]isoxazol-3-yl]-pyrimidin-2-ylamino}-cyclohexyl)-N-methyl-methanesulfonamide]
The melting point of the first is higher: 225 to 226 °C for the first, 213.5 to 214.2 °C for the second.

First: CS(=O)(=O)CCCOc1cccc2c(-c3ccnc(N[C@H]4CC[C@H](C(=O)N5CCC(O)CC5)CC4)n3)noc12 [Compound 307, (4-hydroxy-piperidin-1-yl)-(4-{4-[7-(3-methane-sulfonyl-propoxy)-benzo[d]isoxazol-3-yl]-pyrimidin-2-ylamino}-cyclohexyl)-methanone]
Second: CS(=O)(=O)CCCOc1cccc2c(-c3ccnc(N[C@H]4CC[C@H](C(=O)N5CC[C@@H](O)C5)CC4)n3)noc12 [Compound 309, (3-hydroxy-pyrrolidin-1-yl)-(4-{4-[7-(3-methane-sulfonyl-propoxy)-benzo[d]isoxazol-3-yl]-pyrimidin-2-ylamino}-cyclohexyl)-methanone]
The melting point of the first is lower: 186 to 187 °C for the first, 224 to 225 °C for the second.

First: CS(=O)(=O)N[C@H]1CC[C@H](Nc2nccc(-n3ccc4c(N5CCC(O)C5)cccc43)n2)CC1 (some centres unmarked) [Compound 312, N-(4-{4-[4-(3-hydroxy-pyrrolidin-1-yl)-indol-1-yl]-pyrimidin-2-yl-amino}-cyclohexyl)-methanesulfonamide]
Second: CS(=O)(=O)N[C@H]1CC[C@H](Nc2nccc(-n3ccc4c(OCC(O)CC(F)(F)F)cccc43)n2)CC1 (some centres unmarked) [Compound 314, N-(4-{4-[4-(4,4,4-trifluoro-2-hydroxy-butoxy)-indol-1-yl]-pyrimidin-2-ylamino}-cyclohexyl)-methanesulfonamide]
The melting point of the first is lower: 190.1 to 200.5 °C for the first, 220.7 to 221.5 °C for the second.

With `CS(=O)(=O)CCCOc1cccc2c1ccn2-c1ccnc(N[C@H]2CC[C@H](C(=O)N3CCC(CN)CC3)CC2)n1` [Compound 304, (4-aminomethyl-piperidin-1-yl)-(4-{4-[4-(3-methanesulfonyl-propoxy)-indol-1-yl]-pyrimidin-2-ylamino}-cyclohexyl)-methanone] the melting point was 124.1 to 126.1 °C and 124 to 126 °C.
